{
  "source": "ChEMBL document CHEMBL1255439",
  "about": "(2010)",
  "key": {"[1]": {"system": "Burkholderia pseudomallei", "test": "Antibacterial activity against Burkholderia pseudomallei 1026b infected in BALB/c mouse assessed as survival rate at 25 mg/kg, ip administered 6 hrs postinfection at 12 hrs interval for 3 days measured on day 20", "type": "functional", "details": "route intraperitoneal"}, "[2]": {"system": "Burkholderia pseudomallei", "test": "Antibacterial activity against Burkholderia pseudomallei 1026b infected in BALB/c mouse assessed as protection against bacterial infection at 25 mg/kg, ip administered as single dose 6 hrs postinfection", "type": "functional", "details": "route intraperitoneal"}, "[3]": {"system": "Burkholderia pseudomallei", "test": "Antibacterial activity against Burkholderia pseudomallei 1026b infected in mouse AMJ.2 cells assessed as inhibition of bacterial replication at <= 10 ug/ml after 24 hrs by serial dilution plating technique", "type": "functional, organism-based"}, "[4]": {"system": "Burkholderia pseudomallei", "test": "Antibacterial activity against Burkholderia pseudomallei 1026b infected in mouse AMJ.2 cells assessed as decrease in intracellular bacterial growth at 10 ug/ml after 24 hrs by serial dilution plating technique in presence of 1 U/ml murine recombinant IFN-gamma", "type": "functional, organism-based"}, "[5]": {"system": "Burkholderia pseudomallei", "test": "Antibacterial activity against Burkholderia pseudomallei 1026b infected in mouse AMJ.2 cells assessed as decrease in intracellular bacterial growth at 1 ug/ml after 24 hrs by serial dilution plating technique in presence of 100 U/ml murine recombinant IFN-gamma", "type": "functional, organism-based"}, "[6]": {"system": "Burkholderia pseudomallei", "test": "Antibacterial activity against Burkholderia pseudomallei 1026b infected in mouse AMJ.2 cells assessed as intracellular bacterial count at 10 ug/ml measured on 24 hrs postinfection by serial dilution plating technique (reference value: 2 X 10^4 CFU/ml)", "type": "functional"}, "[7]": {"system": "Burkholderia pseudomallei", "test": "Antibacterial activity against Burkholderia pseudomallei 1026b infected in BALB/c mouse assessed as increase survival rate at 25 mg/kg, ip administered 6 hrs postinfection at 12 hrs interval for 3 days measured on day 20", "type": "functional, organism-based", "set-up": "dose 25 mg/kg"}, "[8]": {"system": "Burkholderia pseudomallei", "test": "Antibacterial activity against Burkholderia pseudomallei 1026b infected in BALB/c mouse assessed as increase in survival rate at 25 mg/kg, ip administered 6 hrs postinfection at 12 hrs interval for 3 days measured on day 60 in presence of murine recombinant IFN-gamma", "type": "functional, organism-based", "set-up": "dose 25 mg/kg"}, "[9]": {"system": "Burkholderia pseudomallei", "test": "Antibacterial activity against Burkholderia pseudomallei 1026b infected in BALB/c mouse assessed as decrease in bacterial count in spleen at 25 mg/kg, ip administered 6 hrs postinfection at 12 hrs interval for 3 days measured on day 65 in presence of murine recombinant IFN-gamma", "type": "functional, organism-based", "set-up": "dose 25 mg/kg"}},
  "note": "Active and inactive are the calls of the source. No cut-off for these calls is given here.",
  "data": [
    {"smiles": "CC(C)(O/N=C(\\C(=O)N[C@@H]1C(=O)N2C(C(=O)[O-])=C(C[n+]3ccccc3)CS[C@H]12)c1csc(N)n1)C(=O)O", "note": "[CEFTAZIDIME]", "values": [
      {"measurement": "Activity", "setting": "[1]", "value": 10, "unit": "%"},
      {"measurement": "Activity", "setting": "[2]", "value": 20, "unit": "%"},
      {"measurement": "inhibition", "setting": "[3]", "value": "inactive"},
      {"measurement": "inhibition", "setting": "[4]", "value": "Active"},
      {"measurement": "inhibition", "setting": "[5]", "value": "Active"},
      {"measurement": "CFU", "setting": "[6]", "value": ">1", "unit": "×10⁶ /ml"},
      {"measurement": "Activity", "setting": "[7]", "value": "inactive"},
      {"measurement": "Activity", "setting": "[8]", "value": "Active"},
      {"measurement": "inhibition", "setting": "[9]", "value": "Active"}
    ]}
  ]
}
